Tests used:
[1] = system: CHO; assay: Inhibitory concentration against 1 nM NPY induced [Ca2+] increase in CHO/dhFr- cells expressing recombinant human Y1 receptor; type: functional, cell-based; settings: Cricetulus griseus
[2] = biological target: T1, Neuropeptide Y receptor type 1 (Homo sapiens, UniProt P25929); assay: Binding affinity against human recombinant NPY Y1 receptor in CHO/dhFr- cell membranes using [125I]PYY
T1 sequence (P25929 whole entry): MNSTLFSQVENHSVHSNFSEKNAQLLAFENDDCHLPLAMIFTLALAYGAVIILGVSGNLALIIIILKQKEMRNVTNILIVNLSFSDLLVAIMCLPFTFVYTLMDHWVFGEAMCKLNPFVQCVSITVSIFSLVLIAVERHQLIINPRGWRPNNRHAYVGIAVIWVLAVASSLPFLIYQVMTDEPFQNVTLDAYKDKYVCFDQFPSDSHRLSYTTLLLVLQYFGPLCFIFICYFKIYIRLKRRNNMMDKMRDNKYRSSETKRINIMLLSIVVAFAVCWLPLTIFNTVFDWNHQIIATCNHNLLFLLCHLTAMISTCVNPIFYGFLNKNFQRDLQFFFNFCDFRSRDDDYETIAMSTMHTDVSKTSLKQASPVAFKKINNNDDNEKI

| Compound | IC50 [1] [nM] | IC50 [2] [nM] |
| --- | --- | --- |
| CC/C=C\CCOc1cc(CCc2nc(C)c(CC)s2)nc(NCc2cc(Cl)cc(NC(=O)OC(C)C)c2)c1 | 64 | 4.7 |
| CCCCCCCOc1cc(CCc2nc(C)c(CC)s2)nc(NCc2cc(Cl)cc(NC(=O)OC(C)C)c2)c1 | – | 72 |
| CCc1sc(CCc2cc(OC(CC)CC)cc(NCc3cc(Cl)cc(NC(=O)OC(C)C)c3)n2)nc1C | 33 | 5.5 |
| CCc1sc(CCc2cc(OCC3(C)CC3)cc(NCc3cc(Cl)cc(NC(=O)OC(C)C)c3)n2)nc1C | – | 17 |
| CCc1sc(CCc2cc(OCCCc3cccnc3)cc(NCc3cc(Cl)cc(NC(=O)OC(C)C)c3)n2)nc1C | 46 | 6.5 |
| CCOc1cc(CCc2nc(C)c(CC)s2)nc(NCc2cc(Cl)cc(NC(=O)OC(C)C)c2)c1 | – | 33 |
| CCc1sc(CCc2cc(OC(C)COC)cc(NCc3cc(Cl)cc(NC(=O)OC(C)C)c3)n2)nc1C (stereo not drawn) | 59 | 8.4 |
| CCCCOc1cc(CCc2nc(C)c(CC)s2)nc(NCc2cc(Cl)cc(NC(=O)OC(C)C)c2)c1 | – | 16 |
| CCc1sc(CCc2cc(N3CCOCC3)cc(NCc3cc(Cl)cc(NC(=O)OC(C)C)c3)n2)nc1C | 2.9 | 1.4 |
| CCc1sc(CCc2cc(OC3CCCC3)cc(NCc3cc(Cl)cc(NC(=O)OC(C)C)c3)n2)nc1C | – | 11 |
| CCCCCOc1cc(CCc2nc(C)c(CC)s2)nc(NCc2cc(Cl)cc(NC(=O)OC(C)C)c2)c1 | – | 35 |
| CCc1sc(CCc2cc(OCCc3ccccc3)cc(NCc3cc(Cl)cc(NC(=O)OC(C)C)c3)n2)nc1C | – | 30 |
| CCc1sc(CCc2cc(OC3CCOCC3)cc(NCc3cc(Cl)cc(NC(=O)OC(C)C)c3)n2)nc1C | 42 | 4.4 |
| CCc1sc(CCc2cc(OCCCc3ccccc3)cc(NCc3cc(Cl)cc(NC(=O)OC(C)C)c3)n2)nc1C | – | 20 |
| CCc1sc(CCc2cc(OC3CCC3)cc(NCc3cc(Cl)cc(NC(=O)OC(C)C)c3)n2)nc1C | – | 11 |
| CCc1sc(CCc2cc(OC3CCCCC3)cc(NCc3cc(Cl)cc(NC(=O)OC(C)C)c3)n2)nc1C | – | 29 |
| CCCCCCOc1cc(CCc2nc(C)c(CC)s2)nc(NCc2cc(Cl)cc(NC(=O)OC(C)C)c2)c1 | – | 63 |
| CCc1sc(CCc2cc(OC(C)C)cc(NCc3cc(Cl)cc(NC(=O)OC(C)C)c3)n2)nc1C | – | 12 |
| CCc1sc(CCc2cc(OC)cc(NCc3cc(Cl)cc(NC(=O)OC(C)C)c3)n2)nc1C | – | 234 |
| CCc1sc(CCc2cc(OCc3ccccc3)cc(NCc3cc(Cl)cc(NC(=O)OC(C)C)c3)n2)nc1C | – | 237 |
| CCc1sc(CCc2cc(OCC(C)(C)C)cc(NCc3cc(Cl)cc(NC(=O)OC(C)C)c3)n2)nc1C | – | 55 |
| CCCOc1cc(CCc2nc(C)c(CC)s2)nc(NCc2cc(Cl)cc(NC(=O)OC(C)C)c2)c1 | – | 17 |

From ChEMBL document CHEMBL1149225, “Synthesis and evaluation of substituted 4-alkoxy-2-aminopyridines as novel neuropeptide Y1 receptor antagonists” (Bioorg Med Chem Lett, 2004)
